Patent US9724352B2, “Pyrrolo[2,1-F[1,2,4]triazine compounds, preparation methods and applications thereof” (Shanghai Institute of Materia Medica, Chinese Academy of …, priority 2012, dated 2017)

Assays:
Experiment in all cases: Proliferation of human esophagus cancer cells
Type in all cases: cell-based
Detroit 562 = system: Detroit 562
Method in brief: (§1)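 Eleven human esophageal cancer lines; antiproliferative activity; GI50, triplicate experiments averaged.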

KYSE140 = system: KYSE140
Method in brief: as §1

KYSE150 = system: KYSE150
Method in brief: as §1

KYSE2 = system: KYSE2
Method in brief: as §1

KYSE30 = system: KYSE30
Method in brief: as §1

KYSE450 = system: KYSE450
Method in brief: as §1

KYSE510 = system: KYSE510
Method in brief: as §1

KYSE70 = system: KYSE70
Method in brief: as §1

COC(=O)Nc1cc(C(F)(F)F)c(-c2nc(N3CCOCC3)c3cc(CN4CCN(S(C)(=O)=O)CC4)cn3n2)cn1 [Compound I-33, Methyl (5-(6-((4-(methylsulfonyl)piperazin-1-yl)methyl)-4-morpholinopyrrolo[2,1-f][1,2,4]triazin-2-yl)-4-(trifluoromethyl)pyridin-2-yl)carbamate]
GI50 (Detroit 562; Detroit 562, Detroit 562, 1st experiment): 718 nM
GI50 (Detroit 562; Detroit 562, Detroit 562, 2nd experiment): 707 nM
GI50 (Detroit 562; Detroit 562, Detroit 562, 3rd experiment): 769 nM
GI50 (Detroit 562; Detroit 562, Detroit 562, mean of three experiments): 731 nM
GI50 (KYSE140; KYSE-140, KYSE140, 1st experiment): 484 nM
GI50 (KYSE140; KYSE-140, KYSE140, 2nd experiment): 804 nM
GI50 (KYSE140; KYSE-140, KYSE140, 3rd experiment): 492 nM
GI50 (KYSE140; KYSE-140, KYSE140, mean of three experiments): 593 nM
GI50 (KYSE150; KYSE-150, KYSE150, 1st experiment): 40 nM
GI50 (KYSE150; KYSE-150, KYSE150, 2nd experiment): 62 nM
GI50 (KYSE150; KYSE-150, KYSE150, 3rd experiment): 38 nM
GI50 (KYSE150; KYSE-150, KYSE150, mean of three experiments): 47 nM
GI50 (KYSE2; KYSE2, 1st experiment): 24 nM
GI50 (KYSE2; KYSE2, 2nd experiment): 28 nM
GI50 (KYSE2; KYSE2, 3rd experiment): 97 nM
GI50 (KYSE2; KYSE2, mean of three experiments): 50 nM
GI50 (KYSE30; KYSE-30, KYSE30, 1st experiment): 2640 nM
GI50 (KYSE30; KYSE-30, KYSE30, 2nd experiment): 566 nM
GI50 (KYSE30; KYSE-30, KYSE30, 3rd experiment): 531 nM
GI50 (KYSE30; KYSE-30, KYSE30, mean of three experiments): 1250 nM
GI50 (KYSE450; KYSE-450, KYSE450, 1st experiment): 1380 nM
GI50 (KYSE450; KYSE-450, KYSE450, 2nd experiment): 803 nM
GI50 (KYSE450; KYSE-450, KYSE450, 3rd experiment): 938 nM
GI50 (KYSE450; KYSE-450, KYSE450, mean of three experiments): 1040 nM
GI50 (KYSE510; KYSE-510, KYSE510, 1st experiment): 55 nM
GI50 (KYSE510; KYSE-510, KYSE510, 2nd experiment): 6 nM
GI50 (KYSE510; KYSE-510, KYSE510, 3rd experiment): 38 nM
GI50 (KYSE510; KYSE-510, KYSE510, mean of three experiments): 33 nM
GI50 (KYSE70; KYSE-70, KYSE70, 1st experiment): 33 nM
GI50 (KYSE70; KYSE-70, KYSE70, 2nd experiment): 27 nM
GI50 (KYSE70; KYSE-70, KYSE70, 3rd experiment): 29 nM
GI50 (KYSE70; KYSE-70, KYSE70, mean of three experiments): 30 nM
